System: SupT1 cells
Assay: Proliferation of T-ALL cells treated with SRC-family kinase inhibitor
Assay type: cell-based, human
Settings: PTCRA-dependent T-ALL cell lines

In the case of `Cc1ccc(-c2nn(C(C)(C)C)c3ncnc(N)c23)cc1` [PP1], the anti-proliferative response is reported as “dose-dependent anti-proliferative response”.

— patent US11814428B2, “Anti-PTCRA antibody-drug conjugates and uses thereof” (REGENERON PHARMACEUTICALS, INC., priority 2019, dated 2023)
